The subject of experiment [1] is acute myeloid leukemia (AML). Briefly: Retrospective analysis of atovaquone exposure in AML patients after HSCT. It counts as in vivo, human. Here is the method: Atovaquone start and end dates for approximately 500 AML patients who underwent HSCT at Dana-Farber Cancer Institute from 2006-2012 were obtained by chart review of the electronic medical record with DFCI IRB approval. Atovaquone was administered as a suspension, 750 mg twice daily. Due to the intermittent atovaquone dosing for some patients, a discontinuation for longer than 50 days disqualified subsequent atovaquone treatment from counting toward a patient's total atovaquone exposure. Patients who received more than one HSCT were excluded (4% of total patients).
The patient population consisted of AML patients treated with HSCT at the Dana-Farber Cancer Institute and who survived at least 150 days after transplant without relapse. Patients treated with atovaquone for at least 100 days within the 150-day period were classified as “high atovaquone” exposure, while the remaining patients were classified as “low atovaquone” exposure. […] To further investigate the anti-cancer activity of atovaquone in patients, serum samples were collected from patients approximately 100 days following HSCT who were being treated with either TMP-SMX or atovaquone. […] Atovaquone is a colored compound, and its presence in patient plasma is visibly noticeable.

Experiment [2] relates to STAT5. As to the kind of experiment: STAT5 phosphorylation in cancer cells. It counts as cell-based. From the text:
It has been discovered, using an unbiased gene expression-based approach, that atovaquone is a novel STAT3 inhibitor. Atovaquone acts by diminishing cell-surface gp130 expression and STAT3 tyrosine phosphorylation. As a consequence, critical STAT3 target genes mediating survival and proliferation are reduced, such as survivin, Bcl-2 family members, and cyclin D1. Moreover, atovaquone inhibits the viability of STAT3-dependent cancer cells by inducing apoptosis and disrupting cell cycle progression. […] Since STAT5 activation is crucial to cancer pathogenesis caused by JAK2-V617F, the additional inhibition of STAT5 in this context is a desirable effect of atovaquone. […] Because the effects of atovaquone on STAT activation are restricted to gp130-dependent signaling, atovaquone inhibits STATs more selectively than direct pharmacological JAK inhibition. […] At the same time, the actions of atovaquone extend to all cytokines that signal through gp130, including LIF and OSM, thereby exerting broader effects than therapies specifically directed against IL-6 or IL-6 receptor, such as monoclonal antibodies. This is also advantageous, since oncogenic effects of LIF and OSM have been reported.

The subject of experiment [3] is STAT5. As to the kind of experiment: STAT5 cell-based luciferase reporter system. On the procedure: To determine if atovaquone inhibits STAT3, it was tested in a cell-based reporter system of STAT3 transcriptional activity (Nelson E A, et al. (2008) Nifuroxazide inhibits survival of multiple myeloma cells by directly inhibiting STAT3. Blood 112(13):5095-5102). These cells lack basal STAT3 activation; upon IL-6 treatment, STAT3 becomes activated and drives transcription of a STAT3-dependent luciferase reporter gene. The STAT3-luc reporter cells were pre-treated with drug for 1 hour, then stimulated with IL-6 (10 ng/ml) for 5 hr. Activity of firefly luciferase was measured and normalized by cell viability (Cell Titer Glo). […] To determine if atovaquone inhibits STAT3 activity specifically over other transcription factors, it was tested in cell-based reporter systems for STAT1 and STAT5, two other STAT family members, and NF-κB, an unrelated transcription factor.
On the technique in general: In a reporter assay the amount or activity of a reporter protein is the signal.

The subject of the next experiment is gp130 mRNA. As to the kind of experiment: gp130 mRNA expression (qRT-PCR). The class given is cell-based. Conditions: MEF, MDA-MB, SKBR3, U266; 25 μM, 12 hours. On the procedure: (§1) Total RNA was reverse transcribed using random hexamers and assayed by qRT-PCR as previously described (see, Grivennikov S I, Greten F R, & Karin M (2010) Immunity, inflammation, and cancer. Cell 140(6):883-899).
MEF, MDA-MB-468, and SKBR3 cells were treated with atovaquone (25 μM) for 6 or 12 hours, then analyzed by Western blot for expression of gp130 and various other receptors. […] In contrast, levels of other receptors—such as PDGFR-β, EGFR, HER2, and IGF1R-β—were not affected, again indicating a specific effect on gp130. […] In summary, atovaquone rapidly induces specific loss of cell-surface gp130, while total gp130 declines secondarily due to protein degradation.
On the technique in general: In qPCR the cycle at which signal appears reflects the starting amount.

The test system of experiment [4] is endogenous STAT3 target genes. As to the kind of experiment: qRT-PCR of endogenous STAT3 target genes. Conditions: U266, INA-6 and HEL cells, 6 hours. The class given is cell-based. Here is the method:
as §1
Gene expression was analyzed in triplicate, normalized by 18S rRNA, and expressed as mean±SEM. For gene expression microarrays, RNA was isolated by Trizol, purified further on RNeasy columns, and profiled using Affymetrix Human Gene 1.0 ST arrays (Affymetrix). Results were deposited under GEO Accession: GSE46575.
The mechanism by which atovaquone inhibits STAT3 was investigated. STAT3-luc reporter cells were pre-treated with atovaquone (20 μM) for 1 hr, and then stimulated with IL-6 (10 ng/ml) for 15 minutes, 30 minutes, 1 hours, or 2 hours. Since STAT3 transcriptional activity is critically dependent on tyrosine phosphorylation, Western blotting was performed to see if atovaquone affected STAT3 phosphorylation. […] Next, atovaquone was used to treat U266 (2.5 hours), HEL (6 hours), or INA-6 cells (4 hours). […] In U266 and INA-6 cells, the source of STAT3 activation is JAK-dependent IL-6 signaling, while in HEL cells, STAT3 is activated by mutant JAK2-V617F. Given that atovaquone inhibits constitutive STAT3 activation in cancer cells, it was asked whether atovaquone inhibits expression of endogenous STAT3 target genes in this context.

The record followed here is US10130590B2, “Methods of treating cancer with atovaquone-related compounds” (DANA-FARBER CANCER INSTITUTE, INC., priority 2013, dated 2018).

In the case of `O=C1C(O)=C([C@H]2CC[C@H](c3ccc(Cl)cc3)CC2)C(=O)c2ccccc21` [atovaquone, trans-2-[4-(4-chlorophenyl)cyclohexyl]-3-hydroxy-1,4-naphthalenedione], the relapse-free survival result in experiment [1] ("high atovaquone" (at least 100 days within the 150-day period) vs "low atovaquone") was “significantly improved relapse-free survival”. In experiment [1] ("high atovaquone" vs "low atovaquone"), the overall survival result is “trend toward improved overall survival”. The “mutant JAK2-dependent phosphorylation of STAT5” value with STAT5 [2] (HEL cells) is “inhibited”. Moreover, the “STAT5 phosphorylation (BCR-ABL activated)” value with STAT5 [2] (K562 cells) is listed as “did not inhibit STAT5 phosphorylation”. Besides, the “STAT5 transcription factor activity” value in the experiment with STAT5 [3] is reported as “modestly affected at the higher doses”. The “gp130 mRNA expression” value in the experiment on gp130 mRNA is listed as “not significantly changed”. Besides, the “expression of multiple STAT3 target genes” value in experiment [4] is on record as “substantially downregulated”.
